Columns and labels:
vitamin D receptor (VDR) = test: Vitamin D-inducible growth hormone production in transfected COS-1 cells; format: cell-based, Green monkey; details: for Total GH Production: averages of duplicate determinations
Experimental: The biological activity in vitro of chemically synthesized 1α,24(S)-(OH)2D2 and 1α,24(R)-(OH)2D2 was measured using a vitamin D-dependent transcriptional activation model system in which a vitamin D receptor (VDR)-expressing plasmid pSG5-hVDR1/3 and a plasmid p(CT4)^4TKGH containing a Growth Hormone (GH)-gene, under the control of a vitamin D-responsive element (VDRE) were co-transfected into Green monkey kidney, COS-1 cells. DNA's for these two vectors were supplied by Dr. Mark Haussler, Department of Biochemistry, University of Arizona, Tucson, Ariz.
Transfected cells were incubated with vitamin D metabolites and growth hormone production was measured.

[1] = tested on: 1,25-(OH)2D3 receptor site; details: Ishizuka et al., Steroids 1981, 1982; cited from earlier work
bovine thymus VDR = target: T1, bovine thymus VDR (Bos taurus, UniProt Q28037); test: Radioreceptor assay, displacement of 3H-1α,25-(OH)2D3 tracer from bovine thymus VDR; format: binding; details: for binding affinity to VDR compared with reference standard (in words): environmentally exposed compounds; for ED50 (amount of material to displace 50% of the bound 3H-1α,25-dihydroxyvitamin D3): environmentally exposed crystalline and powdered material, FIG. 5
T1 construct: commercially available reagents of bovine thymus VDR; purchased Incstar (Stillwater, Minn.); host or cells: bovine thymus
T1 sequence (Q28037 1-426): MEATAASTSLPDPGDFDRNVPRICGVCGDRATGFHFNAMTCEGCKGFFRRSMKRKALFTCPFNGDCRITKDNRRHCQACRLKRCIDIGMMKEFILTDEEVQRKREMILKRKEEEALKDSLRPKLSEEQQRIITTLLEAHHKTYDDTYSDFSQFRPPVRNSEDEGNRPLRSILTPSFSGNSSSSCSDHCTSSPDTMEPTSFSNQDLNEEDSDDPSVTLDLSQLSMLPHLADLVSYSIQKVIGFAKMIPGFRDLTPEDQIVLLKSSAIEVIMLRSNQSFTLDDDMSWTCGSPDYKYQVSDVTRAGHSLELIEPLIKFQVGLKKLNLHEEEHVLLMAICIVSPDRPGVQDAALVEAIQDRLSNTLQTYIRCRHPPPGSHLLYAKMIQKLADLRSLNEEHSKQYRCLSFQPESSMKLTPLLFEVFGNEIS
Experimental: Purified 1α,24(S)-(OH)2D2 was quantitated by photodiode array spectrophotometry and assayed in the radioreceptor assay.
The purified 1α,24(R)-(OH)2D2 and 1α,24(S)-(OH)2D2 epimers were quantitated by ultraviolet spectroscopy.
The binding affinities of the environmentally exposed compounds, crystalline 1α,24-dihydroxyvitamin D2 and powdered 1α,24-dihydroxyvitamin D2, to the vitamin D receptor (VDR) were assessed using methods known in the art, as described, e.g., in Example 6. […] The percent bound versus amount of compound in pg/tube are graphed in FIG. 5.

Hep 3B cells = test: Metabolism of 1α-OH-D2 in Hep 3B cells; format: in vitro ADME, human; details: Experiment 2, substrate 1α-OH-D2 10 μM, photodiode array spectrophotometry
Experimental: Substantially pure 1α-(OH)D2 was obtained from Bone Care International, Inc. of Madison, Wis. The 1α-(OH)D2 was cultured for 48 hours with cells derived from a human hepatoma, Hep 3B, in medium devoid of fetal calf serum using known methods in the art.
Lipid extracts of the combined medium and cells were generated by known methods in the art and were subjected to high pressure liquid chromatography (HPLC) on Zorbax-S1L developed with hexane/isopropano/methanol (91:7:2). The putative 1α,24(?)-(OH)2D2 metabolite eluted between the parent 1α-(OH)D2 and standard 1α,25-(OH)2D2 (also obtained from Bone Care International, Inc. of Madison, Wis.). (As used herein, the term “1α,24(?)-(OH)2D2” is meant to indicate that the epimeric form has not been identified.) The 1α,24(?)-(OH)2D2 was further purified by this HPLC system before the metabolite's identification was undertaken using mass spectrometry analysis.
Hep 3B cells were incubated with 1α-OH-D2, as described above, at final concentrations of 1, 10, or 100 nM (Experiment 1), and 1 or 10 μM (Experiment 2) and 1α,24(S)-(OH)2D2 was extracted and purified. The 1α,24(S)-(OH)2D2 and 1α,25-(OH)2D2 metabolites were quantitated by recovered radiolabel (Experiment 1) or by photodiode array spectrophotometry (Experiment 2).

[2] = Blood metabolite levels in osteoporotic women administered 1α-OH-D2; format: in vivo, human
Experimental: An increase in the production of 1α,24(S)-(OH)2D2 relative to 1α,25-(OH)2D2 has also been observed by the present inventors in human females who received 1α-OH-D2 as part of an investigation of that drug for the treatment of osteoporosis. Following either a single dose of 2 μg of 1α-OH-D2 or daily doses of 8 μg/day for one week, blood was collected and analyzed for the metabolites 1α,24(S)-(OH)2D2 and 1α,25-(OH)2D2. Lipid was extracted from the blood, and the metabolites were purified by HPLC using standard methods and quantified with the radioreceptor assay produced by Incstar (Stillwater, Minn.). One day after a single 2 μg dose, the level of 1α,24(S)-(OH)2D2 was undetectable with the 1α,25-(OH)2D2 level being approximately 11 pg/ml. In contrast, one day following the last dose of 8 μg, the level of 1α,24(S)-(OH)2D2 averaged 9 pg/mL with the 1α,25-(OH)2D2 level averaging 30 pg/mL.

[3] = cited from earlier work
[4] = Plasma metabolites in vitamin D-deficient rats; format: in vivo, rat; details: for plasma metabolite after administration: oral or intraperitoneal, vitamin D-deficient rats, HPLC of plasma lipid extracts
Experimental: Vitamin D2 or 24-OH-D2 was administered (either oral or intraperitoneal supplementation) to vitamin D-deficient rats. Lipid extracts of the plasma were prepared and the metabolites purified by the method of Horst et al. (Horst, R. L., Koszewski, N.J. and Reinhardt, T. A., Biochem., 29:578-82 (1990)) described below for synthesyzing standard biological 1α,24-(OH)2D2.
Standard biological 1α,24-(OH)2D2 was synthesized in vitro from 24-OH-D2 by incubating 10 μg of 24-OH-D2 in flask containing 5 mL of 20% kidney homogenates made from vitamin D-deficient chicks. The product of this reaction was isolated by HPLC and identified by mass spectrometry.

[5] = Chemical stability testing, exposure to heat and light; format: physicochemical; details: one week; for overall retention of the compound (remained intact): after heat and light; for share of UV absorbing material being 1α,24-dihydroxyvitamin D2 (HPLC): detection at 265 nm; for absorbence at 265 nm retained: specimens exposed to heat and light, reference standard in ethanol in a freezer
Experimental: Samples of approximately 5 mg of either crystalline or powdered 1α,24-dihydroxyvitamin D2 were each placed in a 5 mL volumetric flask. The flasks were exposed to identical environmental conditions of variations in heat and light. Heat and light are environmental parameters well-known to affect negatively the integrity of vitamin D compounds.
After one week's time, the contents of the flasks were visually inspected. The powdered specimen appeared to be slightly yellow in color compared to the crystalline specimen. Five mL of ethanol was added to each sample and each specimen was dissolved. These solutions were analyzed for ultraviolet absorbence from 200 to 320 nm. A reference standard 1α,24-dihydroxyvitamin D2 dissolved in ethanol at the same concentration and stored in a freezer for the identical time period was similarly analyzed.
The ethanol solutions of the crystalline and powdered 1α,24-dihydroxyvitamin D2 were also analyzed by high performance liquid chromatography (HPLC) under the following conditions: […]

In the case of `C=C1/C(=C\C=C2/CCC[C@]3(C)[C@@H]([C@H](C)/C=C/[C@](C)(O)C(C)C)CC[C@@H]23)C[C@@H](O)C[C@@H]1O` [1α,24(R)-(OH)2D2, 1α,24(R)-dihydroxyvitamin D2], the “Net vitamin D-inducible GH-production” value (vitamin D receptor (VDR); inducer 5 × 10^−8 M) is reported as 1138 ng/mL, the “Total GH Production” value (vitamin D receptor (VDR); inducer 5 × 10^−8 M) is reported as 1182 ng/mL and the “Net vitamin D-inducible GH-production” value (vitamin D receptor (VDR); inducer 10^−7 M) is reported as 1256 ng/mL. The “Total GH Production” value (vitamin D receptor (VDR); inducer 10^−7 M) was 1300 ng/mL, the “Net vitamin D-inducible GH-production” value (vitamin D receptor (VDR); inducer 10^−8 M) was 1056 ng/mL and the “Total GH Production” value (vitamin D receptor (VDR); inducer 10^−8 M) was 1100 ng/mL. The “Net vitamin D-inducible GH-production” value (vitamin D receptor (VDR); inducer 10^−9 M) was 36 ng/mL and the “Total GH Production” value (vitamin D receptor (VDR); inducer 10^−9 M) was 80 ng/mL.
For `C=C1/C(=C\C=C2/CCC[C@]3(C)[C@@H]([C@H](C)CC[C@@H](O)C(C)C)CC[C@@H]23)C[C@@H](O)C[C@@H]1O` [1α,24(R)-(OH)2D3, 1α,24(R)-dihydroxyvitamin D3], the “binding to the 1,25-(OH)2D3 receptor site relative to 1,25-(OH)2D3” value [1] is given as “more tightly than does 1,25-(OH)2D3 itself”.
In the case of `C=C1/C(=C\C=C2/CCC[C@]3(C)[C@@H]([C@H](C)/C=C/[C@H](C)C(C)(C)O)CC[C@@H]23)C[C@@H](O)C[C@@H]1O` [1α,25-(OH)2D2, 1α,25-dihydroxyvitamin D2, reference compound], the half-maximal binding (bovine thymus VDR; radioreceptor assay, Incstar kit) is reported as 80 pg/mL, the “Rate of Production” value (Hep 3B cells) is reported as 7.4 pmol per 10^6 cells/day and the “blood level of metabolite” value ([2]; one day after a single 2 μg dose of 1α-OH-D2) is reported as “approximately 11 pg/ml”. For the same molecule, the “blood level of metabolite (average)” value ([2]; one day following the last dose of 8 μg/day 1α-OH-D2 for one week) was 30 pg/mL.
In the case of `C=C1/C(=C\C=C2/CCC[C@]3(C)[C@@H]([C@H](C)/C=C/[C@H](C)C(C)C)CC[C@@H]23)C[C@@H](O)C[C@@H]1O` [1α-(OH)D2, 1α-hydroxyvitamin D2], the “bone mass in human osteoporotic patients” value ([3]; dosages of 2.0 μg/day or higher) is listed as “will reverse the loss of bone mass”.
In the case of `C=C1/C(=C\C=C2/CCC[C@]3(C)[C@@H]([C@H](C)CCCC(C)C)CC[C@@H]23)C[C@@H](O)C[C@@H]1O` [1α-(OH)D3, 1α-hydroxyvitamin D3], the “safely obtainable dosage levels” value ([3]; human, in vivo) is listed as “dosage levels of 2.0 μg/day or greater are not safely obtained”.
For `C=C1CC[C@H](O)C/C1=C/C=C1\CCC[C@]2(C)[C@@H]([C@H](C)/C=C/C(C)(O)C(C)C)CC[C@@H]12` (some centres unmarked) [24-OH-D2, 24-hydroxyvitamin D2], the “plasma metabolite after administration” value [4] was “one metabolite isolated co-migrated on HPLC with the standard 1α,24-(OH)2D2”.
In the case of `C=C1CC[C@H](O)C/C1=C/C=C1\CCC[C@]2(C)[C@@H]([C@H](C)CCCC(C)(C)O)CC[C@@H]12` [25-OH-D3, 25-hydroxyvitamin D3, reference compound], the “Net vitamin D-inducible GH-production” value (vitamin D receptor (VDR); inducer 10^−5 M) is reported as 731 ng/mL, the “Total GH Production” value (vitamin D receptor (VDR); inducer 10^−5 M) is reported as 775 ng/mL and the “Net vitamin D-inducible GH-production” value (vitamin D receptor (VDR); inducer 10^−6 M) is reported as 1056 ng/mL. For the same molecule, the “Total GH Production” value (vitamin D receptor (VDR); inducer 10^−6 M) was 1100 ng/mL, the “Net vitamin D-inducible GH-production” value (vitamin D receptor (VDR); inducer 10^−7 M) was 201 ng/mL and the “Total GH Production” value (vitamin D receptor (VDR); inducer 10^−7 M) was 245 ng/mL.
With `C=C1C(=CC=C2CCCC3(C)C2CCC3C(C)C=CC(C)(O)C(C)C)CC(O)CC1O` (stereo not drawn) [crystalline 1α,24-dihydroxyvitamin D2, 1α,24-dihydroxyvitamin D2] the “overall retention of the compound (remained intact)” value [5] was “over 88%”, the “share of UV absorbing material being 1α,24-dihydroxyvitamin D2 (HPLC)” value (shortened to “share”) [5] was 95% and the “retention of the structure, weight-based normalization of the HPLC peak area” value ([5]; listed as crystalline specimen) was 93%. For the same molecule, the “absorbence at 265 nm retained” value ([5]; listed as crystalline specimen) was 93%, the “binding affinity to VDR compared with reference standard (in words)” value (bovine thymus VDR) was “approximately the same as that of a reference standard” and the “ED50 (amount of material to displace 50% of the bound 3H-1α,25-dihydroxyvitamin D3)” value (bovine thymus VDR; listed as crystalline material) was “about 10 pg/tube”.
With `C=C1C(=CC=C2CCCC3(C)C2CCC3C(C)C=CC(C)(O)C(C)C)CC(O)CC1O` (stereo not drawn) [powdered 1α,24-dihydroxyvitamin D2, 1α,24-dihydroxyvitamin D2] the “overall retention of the compound (remained intact)” value [5] was 35%, the “share” value [5] was 78% and the “retention of the structure, weight-based normalization of the HPLC peak area” value ([5]; listed as powdered specimen) was 23%. For the same molecule, the “absorbence at 265 nm retained” value ([5]; listed as powdered specimen) was 45%, the “binding affinity to VDR compared with reference standard (in words)” value (bovine thymus VDR) was “considerably less” and the “ED50 (amount of material to displace 50% of the bound 3H-1α,25-dihydroxyvitamin D3)” value (bovine thymus VDR) was “about 40 pg/tube”. For the same molecule, the “binding activity relative to standard 1α,24-dihydroxyvitamin D2” value (bovine thymus VDR; powder form exposed to the same conditions) was “less than 25%”.
In the case of `C=C1C(=CC=C2CCCC3(C)C2CCC3C(C)C=CC(C)(O)C(C)C)CC(O)CC1O` (stereo not drawn) [reference standard, 1α,24-dihydroxyvitamin D2], the “retention of the structure, weight-based normalization of the HPLC peak area” value [5] is reported as 100%, the “share” value [5] is reported as 96% and the “absorbence at 265 nm retained” value [5] is reported as 100%. For the same molecule, the “ED50 (amount of material to displace 50% of the bound 3H-1α,25-dihydroxyvitamin D3)” value (bovine thymus VDR) was “about 10 pg/tube”.
In the case of `C=C1CC[C@H](O)C/C1=C/C=C1\CCC[C@]2(C)[C@@H]([C@H](C)/C=C/[C@H](C)C(C)C)CC[C@@H]12` [vitamin D2], the “plasma metabolite after administration” value [4] is reported as “one metabolite isolated co-migrated on HPLC with the standard 1α,24-(OH)2D2”.
For `C=C1CC[C@H](O)C/C1=C/C=C1\CCC[C@]2(C)[C@@H]([C@H](C)CCCC(C)C)CC[C@@H]12` [vitamin D3], the “24-hydroxylated metabolite in plasma after administration” value ([4]; comparable rats) was “no detectable 24-OH-D3”.
